The numbers were not newly measured in patent publication US20140287088A1, “Calcium Citrate-Malate as source of calcium to prevent bone diseases and increase bone strength in young animals and birds, especially young poultry, dogs, cats, swine, calves, and horses; and laying hens” (priority 2013, published 2014), which cites them from elsewhere.

In data set [1] the test system is rats. To be noted: by 12 wk.
The conditions of data set [2]: humans; CCM-fortified food vs food fortified with calcium carbonate.

Turning to calcium citrate-malate [CC-M], the “more trabecular bone than rats fed calcium carbonate” value in data set [1] is reported as 44%. For the same substance, in data set [2], the “calcium absorption and retention” value is recorded as “significantly greater”.
